Test results from US6207393A, “Inhibition of intracellular signal transduction by 14-3-3-binding peptides” (Washington University, priority 1999, dated 2001).
Read-outs that look alike come from different tables or passages of the source. Where a SMILES comes first, the peptide text is derived from it. [ ]: non-standard residue; d: D form. pS = N[C@@H](COP(=O)(O)O)C(=O)O

Experiments:
14-3-3 zeta = target: T1, 14-3-3 zeta (Homo sapiens, UniProt P63104); experiment: Displacement of 32P-labeled phosphorylated Raf-259 peptide from immobilized GST/14-3-3 zeta (scintigraphy); assay type: binding
T1 construct: made in house; host or cells: E. coli DH5α (vector pGEX-KT)
T1 sequence (P63104 1-245): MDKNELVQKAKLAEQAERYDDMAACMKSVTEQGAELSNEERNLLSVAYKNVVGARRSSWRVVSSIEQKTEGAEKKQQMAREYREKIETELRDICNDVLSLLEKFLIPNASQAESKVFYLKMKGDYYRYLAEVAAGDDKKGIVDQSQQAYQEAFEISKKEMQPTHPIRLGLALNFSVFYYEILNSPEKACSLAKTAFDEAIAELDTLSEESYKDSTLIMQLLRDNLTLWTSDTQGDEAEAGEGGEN
Description: The 14-3-3 protein isoforms for use in binding studies with the above peptides were prepared as proteins fused with glutathione-S-transferase (GST) and immobilized to glutathione agarose beads. GST/14-3-3 fusion proteins were made by generating BamHI and EcoRI restriction endonuclease sites (underlined) at the 5' and 3' ends respectively of the 14-3-3 cDNAs by polymerase chain reaction (PCR) using the following isoform sequence specific pairs of primers: 14-3-3 beta, […] (SEQ ID NO: 11), […] (SEQ ID NO: 12); 14-3-3 eta […] (SEQ ID NO: 13), […] (SEQ ID NO: 14); 14-3-3 tau […] (SEQ ID NO: 15), […] (SEQ ID NO: 16); 14-3-3 zeta […] (SEQ ID NO: 17), […] (SEQ ID NO: 18). The cDNA products were digested with BamHI and EcoRI, subcloned into the vector pGEX-KT (Guan and Dixon, Anal Biochem 192: 262-7, 1991 which is incorporated by reference). The vector was used to transform the DH5α strain of E. Coli. GST-14-3-3 fusion protein expression in log-growth phase bacterial cultures was accomplished by induction with 100 μM isopropyl β-D-thiogalactopyranoside (IPTG; Gold Biotechnology, St. Louis) for 4 hours. Cells were disrupted by sonication and lysates, containing 1% Triton X-100, were incubated with glutathione agarose beads (Sigma, St. Louis) at 4° C. overnight. Fusion proteins were eluted by incubation with 10 mM reduced glutathione (Sigma, St. Louis) in phosphate buffered saline for 1 hour at room temperature, dialyzed in phosphate buffered saline and quantitated by Coomassie staining SDS polyacrylamine gels compared against bovine serum albumin standards.
The Raf-259 peptide (SEQ ID NO: 4) was phosphorylated in vitro using protein kinase A (PKA) and [^32 P]-γ-ATP following the manufacturers instruction (PKA, New England Biolabs) with 20 μCi of [^32 P]-γ-ATP (NEN-Dupont, 6000 Ci/mmol). The efficiency of phosphorylation was calculated to be between 7 and 12% based upon the specific activity of the labelled peptide.
The labeled peptide was then incubated with immobilized 14-3-3 zeta fusion protein and binding of the labelled peptide was measured. […] Binding was also sequence specific. […]

14-3-3 tau = target: T2, 14-3-3 tau (Homo sapiens, UniProt P27348); experiment: Surface plasmon resonance kinetics, 14-3-3 tau binding to phosphorylated Raf-259 peptide; conditions: isoform tau
T2 construct: made in house; host or cells: E. coli DH5α (vector pGEX-KT)
T2 sequence (P27348 1-245): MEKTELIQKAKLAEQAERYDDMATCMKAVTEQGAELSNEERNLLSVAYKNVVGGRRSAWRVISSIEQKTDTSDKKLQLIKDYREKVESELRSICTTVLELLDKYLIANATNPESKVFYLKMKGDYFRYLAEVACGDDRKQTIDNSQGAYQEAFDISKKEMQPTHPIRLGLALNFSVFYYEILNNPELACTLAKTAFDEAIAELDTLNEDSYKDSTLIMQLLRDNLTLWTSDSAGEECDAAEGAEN
Description: (§1) Because the surface plasmon resonance detects binding in real time, this method can be used to directly determine the rates of association (kon) and dissociation (koff). For these kinetic measurements, GST/14-3-3 fusion proteins were injected over a range of concentrations between 200 nM and 5 μM. The "on" rate, kon, was determined by calculating dR/dt for the initial linear portion of association using the Biaevaluation software (Pharmacia). Because ligand rebinding to the sensor chip can affect the "off" rate (koff, Panayotou et al. Mol Cell Biol 13:3567-76, 1993 which is incorporated by reference), we measured the "off" rate in the presence of 50 μM free ligand by using the coinject function of the Biacore. The "off" rate measured in the absence of 50 μM free ligand was approximately 10-fold lower.
(§2) There are seven known isoforms of 14-3-3 which form homo- and heterodimers in vivo. If different isoforms of 14-3-3 could bind to proteins with distinct specificities, heterodimeric forms of 14-3-3 might function as modular linker proteins, bringing together different proteins into a single complex. We were, therefore, interested in determining whether different 14-3-3 isoforms recognize phosphoserine in a sequence specific fashion. This hypothesis was tested by expressing and purifying three other 14-3-3 isoforms, eta, beta and tau, and measuring their affinity towards the panel of phosphorylated peptides generated above. Using the Surface Plasmon Resonance method, the "on" and "off" rates for 14-3-3 binding to the phosphorylated Raf-259 peptide were calculated (Table 6).

14-3-3 beta = target: T3, 14-3-3 beta (Homo sapiens, UniProt P31946); experiment: Surface plasmon resonance kinetics, 14-3-3 beta binding to phosphorylated Raf-259 peptide; conditions: isoform beta
T3 construct: made in house; host or cells: E. coli DH5α (vector pGEX-KT)
T3 sequence (P31946 1-246): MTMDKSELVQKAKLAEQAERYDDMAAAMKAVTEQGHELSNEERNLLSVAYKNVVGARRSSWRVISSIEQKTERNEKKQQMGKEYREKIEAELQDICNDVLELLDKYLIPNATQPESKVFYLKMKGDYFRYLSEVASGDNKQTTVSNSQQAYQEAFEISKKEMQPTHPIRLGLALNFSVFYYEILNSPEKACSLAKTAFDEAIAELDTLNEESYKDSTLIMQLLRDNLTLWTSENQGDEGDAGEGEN
Description: as §1, §2

CC(C)C[C@H](N)C(=O)N[C@@H](CO)C(=O)N[C@@H](CCC(N)=O)C(=O)N[C@@H](CCCNC(=N)N)C(=O)N[C@@H](CCC(N)=O)C(=O)N[C@@H](CCCNC(=N)N)C(=O)N[C@@H](CO)C(=O)N[C@H](C(=O)N[C@@H](COP(=O)(O)O)C(=O)N[C@H](C(=O)N1CCC[C@H]1C(=O)N[C@@H](CC(N)=O)C(=O)N[C@H](C(=O)N[C@@H](Cc1c[nH]cn1)C(=O)N[C@@H](C)C(=O)O)C(C)C)[C@@H](C)O)[C@@H](C)O [pS-Raf-259] (H-LSQRQRST[pS]TPNVHA-OH)
IC50 (14-3-3 zeta; corrected for 7-12% efficiency of in vitro phosphorylation, read-out: true IC50): 70 to 240 nM
IC50 (14-3-3 zeta; not corrected for efficiency of phosphorylation, read-out: IC50): 1000 to 2000 nM
Kd (14-3-3 tau): 144 nM
koff (14-3-3 tau): 0.0036 s⁻¹
kon (14-3-3 tau): 25000 M⁻¹ s⁻¹
Kd (14-3-3 beta): 145 nM
koff (14-3-3 beta): 0.0032 s⁻¹
kon (14-3-3 beta): 22000 M⁻¹ s⁻¹
